Assay results: PMC5700923, “Second messenger analogues highlight unexpected substrate sensitivity of CD38: total synthesis of the hybrid “L-cyclic inosine 5′-diphosphate ribose”” (Scientific Reports, 2017)

Key:
[1] = target: T1, CD38 (shCD38) (Homo sapiens, UniProt P28907); experiment: inhibition of cADPR hydrolysis, fluorimetric cycling assay; also hydrolysed by shCD38 (RP-HPLC); type: biochemical; details: read-out: L-Ribose / IC50
T1 construct: human CD38 catalytic domain (shCD38)
T1 sequence (P28907 45-300 limits assumed): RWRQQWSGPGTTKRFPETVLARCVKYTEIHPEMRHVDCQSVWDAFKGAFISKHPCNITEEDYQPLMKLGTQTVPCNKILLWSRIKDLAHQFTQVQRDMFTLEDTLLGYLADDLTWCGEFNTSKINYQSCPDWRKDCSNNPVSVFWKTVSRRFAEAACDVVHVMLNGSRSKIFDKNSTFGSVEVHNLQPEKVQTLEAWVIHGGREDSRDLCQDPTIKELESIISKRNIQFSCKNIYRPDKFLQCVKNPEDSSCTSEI

[2] = target: T1, CD38 (shCD38); experiment: inhibition of cADPR hydrolysis, fluorimetric cycling assay; type: biochemical; details: read-out: L-Ribose / IC50
[3] = target: T2, Aplysia cyclase (Aplysia californica, UniProt P29241); experiment: X-ray crystallography, […] cIDPR (authors' unpublished data, Supplementary Figure S2); type: binding
T2 construct: wild-type
T2 sequence (P29241 25-282): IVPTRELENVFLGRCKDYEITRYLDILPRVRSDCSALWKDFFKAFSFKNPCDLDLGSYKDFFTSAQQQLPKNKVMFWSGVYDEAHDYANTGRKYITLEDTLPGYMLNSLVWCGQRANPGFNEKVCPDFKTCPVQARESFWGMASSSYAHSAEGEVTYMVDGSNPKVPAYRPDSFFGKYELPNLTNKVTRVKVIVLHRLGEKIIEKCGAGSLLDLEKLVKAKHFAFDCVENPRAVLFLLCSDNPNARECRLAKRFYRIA

`O=c1c2ncn3c2ncn1[C@H]1O[C@@H](COP(=O)(O)OP(=O)(O)OC[C@H]2O[C@@H]3[C@H](O)[C@@H]2O)[C@H](O)[C@@H]1O` [compound 5, L-cIDPR] showed an IC50 [1] of 526 ± 36 µM.
`Nc1nc2c(=O)n3cnc2n1[C@@H]1O[C@H](COP(=O)(O)OP(=O)(O)OC[C@@H]2O[C@H]3[C@@H](O)[C@H]2O)[C@@H](O)[C@H]1O` [compound 7, 8-NH2-L-cIDPR] showed an IC50 [2] of 21 ± 2 µM.
With `O=c1c2ncn3c2ncn1[C@@H]1O[C@H](COP(=O)(O)OP(=O)(O)OC[C@H]2O[C@@H]3[C@H](O)[C@@H]2O)[C@@H](O)[C@H]1O` [compound 2, cIDPR] the “ligand species seen in crystal structure” value [3] was “both linear IDPR and the cyclic N1-cIDPR are present and close to each other, with cIDPR in an upside-down orientation”.
